Test results reported in ChEMBL document CHEMBL1142447, “Insights into the mechanism of Na+,K+-ATPase inhibition by 2-methoxy-3,8,9-trihydroxy coumestan” (Bioorg Med Chem, 2008).
Activity calls are given as the source filed them. The calls are words filed in the database; no cut-off is given here.

Tests used:
Rattus norvegicus [1] = species on record: Rattus norvegicus; assay: Inhibition of rat kidney Na(+)/K(+) ATPase assessed as enzyme activity at 1 mM after 2 hrs by Fiske and Subbarow method relative to control in presence of 1 mM cysteine; parameters: scale not given: the % may be the effect or the level left
Rattus norvegicus [2] = species on record: Rattus norvegicus; assay: Inhibition of rat kidney Na(+)/K(+) ATPase assessed as enzyme activity at 1 mM after 2 hrs by Fiske and Subbarow method relative to control in presence of 500 uM beta mercaptoethanol; parameters: scale not given: the % may be the effect or the level left
Rattus norvegicus [3] = species on record: Rattus norvegicus; assay: Inhibition of rat kidney Na(+)/K(+) ATPase at 1 mM after 2 hrs by Fiske and Subbarow method in presence of DTT
Rattus norvegicus [4] = species on record: Rattus norvegicus; assay: Inhibition of rat kidney Na(+)/K(+) ATPase assessed as enzyme activity at 1 mM after 2 hrs by Fiske and Subbarow method relative to control; parameters: scale not given: the % may be the effect or the level left
Rattus norvegicus [5] = species on record: Rattus norvegicus; assay: Inhibition of Na(+)/K(+) ATPase in rat kidney assessed as decrease in free sulfydryl groups level at 30 uM after 1 hr by Ellman's method
[6] = Inhibition of rat gastrocnemius Ca2+/Mg2+ ATPase after 2 hrs; assay type: tissue-based
[7] = Inhibition of rat kidney Na(+)/K(+) ATPase
Rattus norvegicus [8] = species on record: Rattus norvegicus; assay: Inhibition of rat kidney Ca2+/Mg2+ ATPase assessed after 2 hrs by Fiske and Subbarow method in presence of DTT
Rattus norvegicus [9] = species on record: Rattus norvegicus; assay: Inhibition of rat kidney Na(+)/K(+) ATPase assessed after 2 hrs by Fiske and Subbarow method in presence of DTT
Rattus norvegicus [10] = species on record: Rattus norvegicus; assay: Inhibition of rat kidney Na(+)/K(+) ATPase assessed as enzyme activity preincubated for 30 mins after 2 hrs by Fiske and Subbarow method in presence of beta mercaptoethanol
Rattus norvegicus [11] = species on record: Rattus norvegicus; assay: Inhibition of rat kidney Na(+)/K(+) ATPase assessed as enzyme activity at 30 uM after 2 hrs by Fiske and Subbarow method relative to control in presence of 500 uM beta mercaptoethanol; parameters: scale not given: the % may be the effect or the level left
Rattus norvegicus [12] = species on record: Rattus norvegicus; assay: Inhibition of rat kidney Na(+)/K(+) ATPase assessed as enzyme activity at 30 uM after 2 hrs by Fiske and Subbarow method relative to control; parameters: scale not given: the % may be the effect or the level left
Rattus norvegicus [13] = species on record: Rattus norvegicus; assay: Inhibition of rat kidney Na(+)/K(+) ATPase assessed as enzyme activity at 30 uM after 2 hrs by Fiske and Subbarow method relative to control in presence of 1 mM cysteine; parameters: scale not given: the % may be the effect or the level left
[14] = Inhibition of rat stomach H(+)/K(+) ATPase after 2 hrs by Fiske and Subbarow method; assay type: tissue-based

C[C@@H]1O[C@@H](O[C@H]2C[C@@H](O)[C@]3(CO)[C@H]4[C@H](O)C[C@]5(C)[C@@H](C6=CC(=O)OC6)CC[C@]5(O)[C@@H]4CC[C@]3(O)C2)[C@H](O)[C@H](O)[C@H]1O
Activity (Rattus norvegicus [1]): 12%
Activity (Rattus norvegicus [2]): 10.5%
Activity (Rattus norvegicus [3]): Active
Activity (Rattus norvegicus [4]): 11.6%

COc1cc2c(cc1O)oc(=O)c1c3cc(O)c(O)cc3oc21
Activity (Rattus norvegicus [5]): Active
IC50 [6]: 10 µM
IC50 [7]: 3000 nM
Activity (Rattus norvegicus [8]): inactive
Activity (Rattus norvegicus [9]): inactive
Activity (Rattus norvegicus [10]): Active
Activity (Rattus norvegicus [11]): 81.3%
Activity (Rattus norvegicus [12]): 6.9%
Activity (Rattus norvegicus [13]): 75.5%
IC50 [14]: 30 µM
